These results are taken from ChEMBL document CHEMBL1201862, “PubChem BioAssay data set” (2004).

Test [1] addresses Disintegrin and metalloproteinase domain-containing protein 17 (Homo sapiens, UniProt P78536). Description: inhibition of ADAM17 substrate cleavage – biochemical, quenched FRET substrate, counter-screen for ADAM10 exosite inhibitor project, dose response (AID 743253). In general terms: The purpose of a counterscreen is to sort out artefacts and off-target activity.
The nature of test [2]: potency of ADAM10 substrate cleavage blockers – biochemical, QFRET, dose response (AID 743254).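 Further: ADAM10 enzyme with the DM2 quenched FRET peptide as substrate; EDANS fluorescence gain as the protease cuts the substrate; inhibitor potency against ADAM10 proteolytic activity.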
Test [3] in a line: Luminescence Cell-Based Dose Confirmation HTS to Identify Activators of 5'UTR Stem-Loop Driven Alpha-Synuclein mRNA Translation in H4 Neuroglioblastoma Cells. [Related pubchem assays: 1829 (Project Summary), 1814 (Primary HTS)]. Type of test: functional.
A short description of test [4]: cells. Type of test: functional, cell-based.
The nature of test [5]: viability loss in HepG2 hepatoma cells – cell-based, ATP luminescence, cherry-pick, activator set 2, cytotoxicity control, dose response (AID 1053143). The test is classed as functional.
Another test deals with H4. Description: Luminescence Cell-Based Dose Response HTS to Identify Activators of 5'UTR Stem-Loop Driven Prion Protein mRNA Translation in H4 Neuroglioblastoma Cells. [Related pubchem assays: 1829 (Project Summary), 1814 (Primary HTS)]. The following applies: Homo sapiens. The test is classed as functional.
Test [6] in a line: Luminescence Cell-Based Dose Response HTS to Identify Activators of Luciferase Translation or Activity in H4 […] Cells. [Related pubchem assays: 1829 (Project Summary), 1814 (Primary HTS)]. Type of test: functional.
Test [7] deals with Oxysterols receptor LXR-beta (Homo sapiens, UniProt P55055). The test is classed as functional, cell-based.
Test [8] in a line: cells. Type of test: functional, cell-based. This is another data set of the same source.
A short description of test [9]: cells.
The target in another test is Major prion protein (Homo sapiens, UniProt P04156). The test is classed as functional, cell-based.
Test [10] relates to BJ. Description: growth inhibition of engineered Ras-driven BJ cells – cell-based, alamar blue fluorescence, cherrypicked samples, dose response (AID 2631).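 Further: confirmatory dose-response assay in RAS-dependent BJ fibroblasts engineered with TERT, LT and ST, with cytotoxicity read by fluorescence.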 Type of test: functional. The following applies: Homo sapiens. (Alamar Blue is a resazurin reagent that responds to reducing activity.)
The next test concerns the target Large T antigen (Simian virus 40, UniProt P03070). Type of test: functional, Betapolyomavirus macacae.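 Further: Confirmatory-stage PubChem screen for compounds that inhibit SV40 T antigen.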
A short description of test [11]: alpha-synuclein stem-loop luciferase translation blockers – H4 neuroglioma cells, luminescence, confirmation (AID 1988). Type of test: functional, cell-based.
For test [12], the system named is BJ. Description: BJ-TERT-LT-ST fibroblast viability loss – cell-based, RAS-independent, luminescence, dose response (AID 1935).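 Further: BJ fibroblasts immortalized with TERT plus LT and ST oncogenes.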 Type of test: functional. The following applies: Homo sapiens.
Test [13] in a line: Luminescence Cell-Based Dose Response HTS to Identify Inhibitors of 5'UTR Stem-Loop Driven Prion Protein mRNA Translation in H4 Neuroglioblastoma Cells. [Related pubchem assays: 1827 (Project Summary), 1813 (Primary HTS)]. Type of test: functional.
A further test concerns the target Nonstructural protein 1 (Influenza A virus, UniProt Q194T2). The test is classed as functional, Influenza A virus (A/California/07/2009(H1N1)).
The subject of test [14] is BJ. Description: cells. As to conditions: Homo sapiens. Type of test: functional, cell-based.
A short description of test [15]: general mammalian cell viability loss – activator set, cherry-pick, cytotoxicity control for miR-122 modulator project, dose response (AID 720690).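 Further: HEK293T human cells scored for general mammalian cytotoxicity.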 Type of test: functional, cell-based.
Test [16] concerns the target T1, Rac GTPase-activating protein 1 (Homo sapiens, UniProt Q9H0H5).
T1 sequence (Q9H0H5 whole entry): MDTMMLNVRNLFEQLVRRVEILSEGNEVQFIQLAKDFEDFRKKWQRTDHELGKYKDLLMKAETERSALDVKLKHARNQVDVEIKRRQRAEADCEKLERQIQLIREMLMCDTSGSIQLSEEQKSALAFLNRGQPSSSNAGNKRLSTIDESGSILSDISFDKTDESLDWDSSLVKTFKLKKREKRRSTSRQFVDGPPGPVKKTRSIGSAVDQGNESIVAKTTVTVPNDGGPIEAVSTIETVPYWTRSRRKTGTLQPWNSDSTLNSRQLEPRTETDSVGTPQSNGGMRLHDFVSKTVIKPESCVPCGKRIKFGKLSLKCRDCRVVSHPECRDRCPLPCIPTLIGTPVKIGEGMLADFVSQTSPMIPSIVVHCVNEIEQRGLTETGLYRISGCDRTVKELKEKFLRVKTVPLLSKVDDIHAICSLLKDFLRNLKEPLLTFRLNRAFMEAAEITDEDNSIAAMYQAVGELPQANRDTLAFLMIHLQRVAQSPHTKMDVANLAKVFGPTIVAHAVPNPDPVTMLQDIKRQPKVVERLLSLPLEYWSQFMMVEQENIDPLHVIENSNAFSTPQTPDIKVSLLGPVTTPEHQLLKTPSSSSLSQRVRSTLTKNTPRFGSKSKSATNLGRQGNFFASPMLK
Briefly: blockers of MgcRacGAP-driven Rac1 GTP hydrolysis – biochemical, ADP Hunter fluorescence, primary and confirmatory, confirmation (AID 624330). Type of test: functional.

Test [17] has as its system BJ. Description: BJ-TERT fibroblast viability loss – cell-based, RAS-independent, luminescence, dose response (AID 1933). Type of test: functional. As to conditions: Homo sapiens.
Test [18] in a line: DRD fibroblast viability loss – cell-based, non-viral oncogenic, luminescence, dose response (AID 1934). The following applies: Homo sapiens. The test is classed as functional.
A short description of test [19]: Luminescence Cell-Based Dose Confirmation HTS to Identify Inhibitors of Platelet Dense Granule Release. [Related pubchem assays: 1663 (Primary HTS), 1678 (Summary of Project)]. The test is classed as functional.
For test [20], the target named is Luciferin 4-monooxygenase (Photinus pyralis, UniProt P08659). Briefly: inhibition of purified Photinus pyralis luciferase – biochemical, luminescence, dose response (AID 1891).
A short description of test [21]: luciferase reporter signal suppression in cells – H4 neuroglioma cells, luminescence, dose response (AID 1990). Type of test: functional, cell-based.
The nature of test [22]: general mammalian cell viability loss – inhibitor set, cherry-pick, set 2, cytotoxicity control for miR-122 modulator project, dose response (AID 720697). Type of test: functional, cell-based.
Test [23] is described as follows: MITF Orthogonal Assay: SK-MEL-5 CTG Assay Measured in Cell-Based System Using Plate Reader - 2084-02_Inhibitor_Dose_DryPowder_Activity_Set7. Type of test: functional.
Test [24] can be described thus: MITF: Counter assay: A375 proliferation Measured in Cell-Based System Using Plate Reader - 2084-03_Inhibitor_Dose_DryPowder_Activity_Set8. The test is classed as functional. The following applies: A-375.
A short description of test [25]: inhibitors of TRPM1-promoter reporter in SK-MEL-5 – cell-based, luciferase, dry powder, set 8, MITF inhibitor project, dose response (AID 624430). The test is classed as functional.
A short description of test [26]: viability loss in MITF-independent A375 cells – cell-based, CellTiter-Glo luminescence, dry powder, set 2, counter-screen for MITF inhibitor project, dose response (AID 624489).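 Further: actives are compounds lowering A375 viability meaning general cytotoxicity.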 Type of test: functional. The following applies: A-375. (In ATP-based viability assays light output follows the ATP content of the culture.)
The nature of test [27]: cytotoxicity in MITF-independent A375 cells – cell-based, CellTiter-Glo luminescence, dry powder, set 4, counter-screen for MITF inhibitor project, dose response (AID 624364).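 Further: A375 melanoma cells are MITF independent so this is a counter screen.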 The test is classed as functional. As to conditions: A-375.
Test [28] concerns the target Protein disulfide-isomerase (Homo sapiens, UniProt P07237). Description: inhibition of PDI-mediated insulin reduction – biochemical, turbidity, dry powder samples, set 2, confirmation (AID 652146).
Another test addresses NS3 (Hepatitis C virus, UniProt A3EZJ3). Description: NS3h DNA-binding inhibition IC50 – biochemical, fluorescence polarization, ChemBridge library, dose response (AID 743264).
Test [29] concerns the target Potassium channel subfamily K member 3 (Homo sapiens, UniProt O14649). Description: inhibition of human KCNK3 channel flux – CHO cells, FluxOR thallium flux, SAR follow-up (AID 652212). The test is classed as functional.
Test [30] addresses Potassium channel subfamily K member 9 (Homo sapiens, UniProt Q9NPC2). Briefly: KCNK9 flux blockade, concentration-response – cell-based, FluxOR thallium flux, selectivity assay for TASK1 inhibitor project, SAR follow-up (AID 652211).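 Further: potency is for inhibitors of the channel.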 Type of test: functional.
A short description of test [31]: blockers of HIV-1 ZM109 envelope-driven cell-cell fusion – HeLa effector, CEM target cells, luciferase, cherry-pick, dose response (AID 652058).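 Further: luciferase signal from HIV-1 Env mediated cell-cell fusion of effector and target cells.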 The test is classed as functional, cell-based.
For test [32], the target named is Photoreceptor-specific nuclear receptor (Homo sapiens, UniProt Q9Y5X4). The test is classed as functional, cell-based.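 Further: CHO-S cells with Gal4-NCOR and VP16-NR2E3 two-hybrid luciferase reporter.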
Test [33] in a line: blockers of HIV-1 envelope-mediated cell-cell fusion – cherry-pick, dose response (AID 652057). Type of test: functional, cell-based.
Test [34] in a line: HIV-1 AD8 envelope cell-cell fusion blockers – cherry-pick, dose response (AID 652062).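 Further: luciferase signal from cell-cell fusion driven by HIV-1 clade B AD8 Env; potency is for inhibitors of fusion seen as a drop in luminescence.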 The test is classed as functional, cell-based.
Test [35] is described as follows: off-target signal loss in HeLa-CEM21 co-culture – HeLa F-luc CTL cells, cherry-picked, counter-screen for HIV-1 Env fusion inhibitor project, dose response (AID 652040).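 Further: potency for signal decrease marking cytotoxic or nonspecific inhibition.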 Type of test: functional, cell-based.
Test [36] in a line: CMV-driven luciferase expression suppression in HEK293 – cell-based, luminescence, dry powder, counter-screen for Pax8 inhibitor project, dose response (AID 743020). The test is classed as functional.
A further test concerns the target Paired box protein Pax-8 (Homo sapiens, UniProt Q06710). Description: PAX8 transcriptional activity inhibition in RMG-I – RMG-I cells, luciferase, cherry-pick, dose response (AID 687027).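 Further: luciferase reporter driven by Pax8 target thyroperoxidase promoter measured by SteadyGlo luminescence.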 The test is classed as functional, cell-based.
A short description of test [37]: viability loss in CEM21 cells – cell-based, CellTiter-Glo luminescence, cherry-picked, cytotoxicity control for viral fusion inhibitor project, dose response (AID 652042).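 Further: potency for signal decrease meaning cytotoxicity.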 The test is classed as functional.

The source made the active and inactive calls.

Regarding `COc1cc(OC)c(N(C)S(=O)(=O)c2cccc(C(=O)OCC(=O)c3c[nH]c4ccccc34)c2)cc1Cl`, the IC50 in [1] and in [2] was > 69.5 µM (inactive) each time.
`O=C(NCCc1ccccc1)c1cc(-c2ccco2)on1`: the EC50 (as a rule, the concentration at which the effect is half-maximal) in [3] was 3.89 µM (active); in the test “cells [4]” it was 11.8 µM (active); with H4, > 120 µM (not active); in test [6] it was 0.116 µM (active); in test [7] it was > 67.5 µM (inactive); in the test “cells [8]”, 339 µM (active). The AC50 (in general, the concentration at which the activity in the assay is half-maximal) in test [5] is 26 µM (active).
For the molecule `Cc1nc(SCC(=O)Nc2cc(C(N)=O)cc(C(N)=O)c2)c2c(C)c(C)sc2n1`, the IC50 (as a rule, the concentration that gives 50% inhibition) is > 138 µM (inactive) in “cells [9]” and 11.6 µM (inactive) on Major prion protein.
Consider `Oc1ccc(/C=N/Nc2nccnc2Cl)c(O)c1`, for which the EC50 in the test on BJ [10] was 6.12 µM (active); in [11], 3.7 µM (active); in the test with BJ [12], 10.9 µM (active); in test [13] it was 6.33 µM (active); in the test with BJ [14], 5.07 µM (active); in the test with BJ [17], 10.7 µM (active). Also, the EC50 in [18] is 13.4 µM (active); in test [19], 0.254 µM (active); in test [20] it was 1.05 µM (active); in test [21] it was 7.09 µM (active). For the same molecule, the figures for the IC50 (at Large T antigen; at Nonstructural protein 1; in test [16]) were 16.7 µM (active), 9.11 µM (active) and 12.7 µM (active), respectively. Further, the AC50 in [15] was 16.5 µM (active); in test [22], 3.85 µM (active).
Take `CCN1CCN(C2=C(Nc3ccc(I)cc3)C(=O)c3ccccc3C2=O)CC1`: the concentration at half-maximal activity (AC50) in test [23] was 7.26 µM (active); in test [24], 16.8 µM (active); in test [25] it was 1.48 µM (active).
Regarding `CC(=O)N(C)C1=C(N2CCN(C)CC2)C(=O)c2ccccc2C1=O`, the values for the AC50 in [26] and in [27] were 5.65 µM (active) and 12.1 µM (active), respectively.
For `O=C(Nc1ccccc1)C1(CCOc2ccccc2)CCN(Cc2ccc(O)c(Cl)c2)CC1`, the AC50 in test [28] is 15 µM (active).
Turning to `O=C1C=CC(=O)N1c1ccc(Br)cc1[N+](=O)[O-]`, the IC50 at NS3 is 22.4 µM (inactive).
As to `CCOc1ccccc1NC(=O)c1cccc(NC(=O)CC2CCCCC2)c1`, the figures for the IC50 in [29] and in test [30] were 0.217 µM (active) and 1.92 µM (active), respectively.
Regarding `CCC1(O)C(=O)OCc2c1cc1n(c2=O)Cc2cc3c(N)cccc3nc2-1` (stereo not drawn) [RS-9-Aminocamptothecin], the AC50 in [31] was 0.857 µM (active); in test [33], < 0.26 µM (active); in [34], 0.368 µM (active); in test [35] it was < 0.26 µM (active); in [36], < 6.17 µM (active); at Paired box protein Pax-8, < 0.26 µM (active). Besides, in [37], the AC50 was 2.67 µM (active). Also, the IC50 in [32] is 1.83 µM (active).
